{
  "source": "patent US7763269B2",
  "about": "“Therapeutic foam” (BTG International Ltd., priority 2003, dated 2010)",
  "assay": "in vitro absorption of foam/gas in fresh human venous blood",
  "assay_type": "in vitro ADME",
  "conditions": "0.5 ml aliquot in 20 ml stirred blood",
  "procedure": "In vitro experiments were conducted to determine the absorption of foam made with different gases in fresh human venous blood.\nA 20 ml polypropylene syringe barrel was prepared by puncturing its side wall with a relatively large hypodermic needle to make a hole approximately 1 mm in diameter. This hole was then covered by securing a piece of clear flexible vinyl sheet over it with clear adhesive tape. A small magnetic stirrer element was introduced into the syringe barrel and the plunger then replaced. 20 ml of human venous blood was then with withdrawn in the usual manner from a human subject using the specially prepared syringe fitted with a hypodermic needle.\nThe hypodermic needle was removed and the syringe then placed on a magnetic stirrer unit so that the magnetic element in the syringe thoroughly agitated the blood. […]\nThe needle of the 0.5 ml syringe was then introduced through the vinyl sheet on the side wall of the 20 ml syringe. […] It was determined that a distance of 45 intervals on this scale corresponded to an internal volume of in the manometer tubing of approximately 0.5 ml. […]\nIn this experiment, the air foam test was only observed for a few minutes after tF. However, further experiments have been conducted by the inventors, the results of which are not formally recorded here, involving foam with a percentage of nitrogen. […]",
  "data": [
    {"smiles": "O=O", "note": "[Oxygen gas, oxygen]", "values": [
      {"measurement": "Absorbed volume at tF", "value": 0.46, "unit": "mL"},
      {"measurement": "tF (time until blood column stopped moving)", "value": 140, "unit": "s"}
    ]}
  ]
}
